Assays:
HCV replicon = assay: IC50 assay with HCV luciferase replicon cell-line; format: cell-based; settings: Hepatitis C virus, Huh-7; Huh7 cell line containing HCV replicon with luciferase reporter, 48 h
Text: Plating Cells: The cells used in these assays were a liver-derived Huh7 cell line containing an HCV replicon bearing a luciferase reporter gene. The Huh7 cell-line can be obtained from various sources including the Japanese Collection of Research Bioresources (JCRB), Osaka, Japan. The Huh7 cell line containing an HCV replicon bearing a luciferase reporter gene can be prepared essentially as described by Vrolijk J M, et al. (J Virol Methods. (2003) 110(2):201-9). Cells were passaged when they reached about 70% confluency.
These 0.5 mM dilutions were then used to further serially dilute the compounds in DMEM+2% FBS+0.5% DMSO to keep the concentration of DMSO in each condition identical.
The Glo Lysis Buffer and the Bright Glow reagent was allowed to warm to room temperature for about 30 min in the dark. […] The media was removed from cells, and the cells were gently washed with about 100 μL of phosphate buffered saline (PBS). […] It should be noted that luciferin has a half-life of approximately 30 min at room temperature after it is added to the plate. […] The data was saved and used to calculate the percent inhibition of luciferase activity at each drug concentration. […] Curve equation: (m1−m2)/(1+(x/m3)^m4); m1=100; m2=0.01; m3=0.01; m4=0.01; the equation is: […]

RPK9 cells = assay: cells; settings: Homo sapiens, 48 h, read-out: TC50 (μM), 48 h treatment
Experimental: Plating Cells: PK9 or RPK9 cells were seeded in 96-well plates at a density of 2,500 cells/well or 2,500 cells/well, respectively, and the plates were incubated at 37° C. for 24 h to allow for cell attachment.
Treating with Control & Compound 1: The cells were treated with each compound at final concentrations ranging from 500 μM to 0 μM in triplicate in media containing 2% FBS and 0.5% DMSO.
The RPK9 cells are described in Saiki, T., et al. (2012) Biochim. Biophys. Res. Commun. 421, 98-104).

Huh7 cells = assay: TC50 MTS cell viability assay with Huh7 cells (48 h); format: cell-based; settings: Homo sapiens, Huh-7
Text: Plating Cells: Huh7 cells (a hepatocellular carcinoma cell-line; these cells can be obtained from the Japanese Collection of Research Bioresources (JCRB), Osaka, Japan) were used to determine the TC50 for representative compounds of the present invention. Briefly, Huh7 cells were passaged when they reached about 70% confluency. The cells were counted using a hemocytometer following dilution of the cells to about 0.5×10^5 cells per mL in DMEM with 10% fetal bovine serum (FBS). The cells were plated in a clear 96-well plate (about 5,000 cells in 100 μL per well). The cells were allowed to attach for about 24 hours at 37° C.
Treating of the cells: The DMEM media without phenol red containing 2% FBS was pre-warmed to 37° C. […] Following dilution, the final DMSO concentration was about 0.5% (v/v). […] The plates were then returned to the incubator and incubated with the cells for 48 h at 37° C.
The 96-well plate with cells incubated with test compound was removed from the 37° C. incubator. The appropriate amounts of the MTS and PMS reagents were removed from the kit and mixed well. The reagents were maintained in the dark due to their light sensitivity. […] The solutions were mixed completely in the wells prior to each reading.

`O=C(Nc1ccn(C2O[C@H](CO)[C@@H](O)C2(F)F)c(=O)n1)c1ccc2c(c1)OCO2` (stereo partly drawn) [Compound 1, N-(1-((4R,5R)-3,3-difluoro-4-hydroxy-5-(hydroxymethyl)tetrahydrofuran-2-yl)-2-oxo-1,2-dihydropyrimidin-4-yl)benzo[d][1,3]dioxole-5-carboxamide] was tested, and the IC50 (HCV replicon) was 0.06 ± 0.008 µM, the CC50 (RPK9 cells) was > 500 µM and the CC50 (Huh7 cells) was 473 ± 74 µM.

Source: patent publication US10000521B2 (priority 2013, dated 2018)
